This note sets out measurements from patent publication US20250179143A1, “SYSTEMS AND METHODS FOR CHAPERONE-MEDIATED LIGAND EXCHANGE ON MHC-I AND MHC-RELATED MOLECULES USING CHICKEN TAPBPR” (priority 2022, published 2025).

Non-standard residues stand in square brackets, D forms with d. No end group written: not given here.

What is called Tm is the temperature at the midpoint of the melting transition.

Data set [1] in a line: DSF thermal stability of pMHC-I molecules. Format: physicochemical.
In data set [2] the target is HLA-A*02:01 (Homo sapiens, UniProt P04439, D140Y/D185E/D98H/E176V/E277Q/G131W/G231S/I119V/I121R/I166T/I218V/L300P/L318F/N151K/N90K/P208A/P217A/Q86G/Q94H/R138H/R169H/T345S). Kind of data set: Fluorescence polarization (FP) peptide exchange. (Polarisation of emitted light reports the rotation of a fluorescent probe.)
The target in data set [3] is chTAPBPR/HLA-B*08:01 complex (Homo sapiens, UniProt P01889, A93T/A95T/D138N/E176V/E187T/K202T/Q94N/R180D/S35A/V36M/Y33D/Y91F). Kind of data set: EMSA of peptide-receptive complex with peptides. Conditions: 10-fold molar excess peptide.
Setting [4] is: HLA-A*02:01 refolded with the named peptide.
The mark [5] stands for this setting: absence or presence of 10 nM hTAPBPR.

On to “A*02:01/βFILGFVFTV: HLA-A*02:01 loaded with βFILGFVFTV (SEQ ID NO: 66) ([βPhe]ILGFVFTV-OH; not fully specified; printed as βFILGFVFTV; also: loaded in HLA-A*02:01 complex)”, for which, in data set [1] (HLA-A*02 subtypes loaded with KILGFVFβFV and HLA-A*02:01 loaded with βF scanning peptides), the “Tm (° C.)” value was found to be 53.9 °C.

As for ILDTAGQEEY [RAS, reference compound], the Tm in data set [1] (HLA-A*01:01 refolded with the named peptide) came out at 52 °C.

Turning to KILGFβFFTV [βF-P6], in data set [1] (setting [4]), the melting temperature (Tm) is 61 °C. For the same substance, the entries for the “exchange of βF placeholder peptide on HLA-A*02:01 for fluorescent peptide” value (“exchange of βF placeholder peptide” below) in data set [2] (5000 nM hTAPBPR) and in data set [2] (setting [5]) were “allowed peptide loading” and “no peptide exchange”, respectively.

With βFILGFVFTV [βF-P1], in data set [2] (5000 nM hTAPBPR), the “exchange of βF placeholder peptide” value is given as “complete fluorescent peptide exchange”.

As to AIFQSSMTK [HIV], the “pMHC-I bands upon incubation of the complex with the peptide” value (“pMHC-I bands upon incubation” below) in data set [3] is reported as “not”.

In the case of KIβFGFVFTV [βF-P3], the Tm in data set [1] (setting [4]) came out at 58 °C. The “exchange of βF placeholder peptide” value in data set [2] (5000 nM hTAPBPR) is “complete fluorescent peptide exchange”.

Consider “KILGFVFJV (photolabile J residue; VARIANT 8 J=3-amino-3-(2-nitrophenyl)-propionic acid) [PhotoA02, reference compound]”, for which the Tm in data set [1] (setting [4]) worked out at 52 °C.

In the case of KILGβFVFTV [βF-P5], in data set [1] (setting [4]), the Tm came to 62 °C. For the same substance, the “exchange of βF placeholder peptide” value in data set [2] (5000 nM hTAPBPR) is “allowed peptide loading”.

With MLYQHLLPL [T1D95], the “pMHC-I bands upon incubation” value in data set [3] is “discrete pMHC-I bands”.

For the substance KILGFVβFTV [βF-P7], the Tm in data set [1] (setting [4]) amounted to 63 °C. Further, the “exchange of βF placeholder peptide” value in data set [2] (5000 nM hTAPBPR) is given as “allowed peptide loading”; in data set [2] (setting [5]) it was “no peptide exchange”.

With KILGFVF(BF)V [BetaA02], in data set [1] (setting [4]), the Tm is 53 °C. For the same substance, the “exchange of βF placeholder peptide” value in data set [2] (5000 nM hTAPBPR) is recorded as “complete fluorescent peptide exchange”.

For the substance ALWMRLLPL [T1D30], in data set [3], the “pMHC-I bands upon incubation” value was “discrete pMHC-I bands”.

Take FLRGRAYGL [EBV]: the “pMHC-I bands upon incubation” value in data set [3] was “discrete pMHC-I bands”.

For the substance KILβFFVFTV [βF-P4], the “exchange of βF placeholder peptide” value in data set [2] (5000 nM hTAPBPR) is “complete fluorescent peptide exchange”.
